Measured values published in patent US5677297A, “Benzazepine-, benzoxazepine- and benzothiazepine-n-acetic acid derivatives, process for their preparation and pharmaceutical compositions containing them” (Solvay Pharmaceuticals GmbH, priority 1995, dated 1997).

How the values were obtained:
[1] = In vivo determination of the effect on diuresis/natriuresis in volume-loaded rats; set-up: species or system rat (male Wistar); conditions: urine collected over 60 min
Method: 4. In vivo determination of the effect of the substances on diuresis/natriuresis in volume-loaded rats.
The in vivo activity was investigated in volume-loaded rats. In this experiment a high cardiac filling pressure was caused by infusion of isotonic sodium chloride solution, which results in ANP release and thus diuresis/natriuresis.
The tests are carried out with male Wistar rats having a body weight of 200-400 g. Under neuroleptanalgesia (fentanyl; Hypnorm™, manufactured by Janssen), a catheter was placed in the right femoral vein for the baseline infusion and the volume loading with isotonic sodium chloride solution. After the abdominal cavity had been opened, a second catheter was inserted into the bladder, and the urethra was tied off so that it was possible to measure the urine volume, natriuresis and kaliuresis.
The abdominal cavity was closed again and the animals received a continuous infusion with sodium chloride solution (0.5 ml/100 g body weight) throughout the 2 hours of the test. After an equilibration period of 30 minutes, in a preliminary phase before the test substance was given, urine samples were collected three times over a period of 10 minutes in each case. These preliminary values ("predrug" values) were determined in order to check that there was a continuous flow of urine in the test animals.
The solutions containing test substances were then administered intravenously (bolus injection into the femoral vein) or orally (by gavage) to groups of 10 rats each. With both modes of administration, in each case one control group of animals received only placebo solutions which contained no active substance. 5 Minutes after i.v. administration or 120 minutes after oral administration of the substances, the rats were loaded with an increased volume of sodium chloride solution i.v. (2 ml/100 g body weight in 2 minutes) and the urine was collected over a period of 60 min. The amounts of urine produced in this period were determined, and the sodium and potassium contents therein were measured. The increase in excretion which took place under volume loading by comparison with the preliminary values was deduced from the resulting amounts of urine.
Furthermore, the amounts of sodium and potassium excreted under volume loading after administration of test substance are also indicated as a percentage of the amounts of sodium and potassium excreted under volume loading after placebo administration.

[2] = target: T1, endothelin-converting enzyme (ECE) (Homo sapiens, UniProt P42892); test: In vitro investigation of the ECE-inhibitory effect (recombinant human ECE in CHO cell membrane fraction); format: biochemical; conditions: 24 μM synthetic peptide substrate, pH 7.0, 37° C., 60 min
T1 construct: expressed in transfected cells; host or cells: CHO cells (Chinese hamster ovary), membrane fraction
T1 sequence (P42892 1-770): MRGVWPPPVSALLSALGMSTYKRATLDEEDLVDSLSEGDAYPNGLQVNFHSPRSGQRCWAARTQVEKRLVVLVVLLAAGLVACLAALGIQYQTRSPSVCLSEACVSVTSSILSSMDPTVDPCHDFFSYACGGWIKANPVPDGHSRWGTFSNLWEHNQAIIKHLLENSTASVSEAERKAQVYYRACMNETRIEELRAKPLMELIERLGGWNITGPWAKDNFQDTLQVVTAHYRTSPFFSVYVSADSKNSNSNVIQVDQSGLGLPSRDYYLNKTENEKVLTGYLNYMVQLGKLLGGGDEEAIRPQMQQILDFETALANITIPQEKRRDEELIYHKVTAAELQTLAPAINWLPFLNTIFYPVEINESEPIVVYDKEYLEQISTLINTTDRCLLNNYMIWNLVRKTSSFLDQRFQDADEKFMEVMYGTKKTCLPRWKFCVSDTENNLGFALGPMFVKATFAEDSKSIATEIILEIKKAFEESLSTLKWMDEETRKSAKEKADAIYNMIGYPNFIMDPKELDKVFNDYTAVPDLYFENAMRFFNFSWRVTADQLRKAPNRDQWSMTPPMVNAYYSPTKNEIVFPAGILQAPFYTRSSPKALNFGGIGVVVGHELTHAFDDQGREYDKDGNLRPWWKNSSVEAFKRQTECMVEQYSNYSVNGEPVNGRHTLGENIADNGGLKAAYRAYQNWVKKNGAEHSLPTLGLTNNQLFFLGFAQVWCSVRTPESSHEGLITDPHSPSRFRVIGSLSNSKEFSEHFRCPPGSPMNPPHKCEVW
Method: 3. In vitro investigations of the ECE-inhibitory effect of the substances.
The IC50 of the substances was determined as a measure of their inhibitory activity. The IC50 of a test substance with enzyme-inhibiting activity is the concentration of the test substance at which 50% of the enzymatic activity of ECE is inhibited.
Preparation of the ECE-containing endothelial cell membrane fraction.
Egg cells from the Chinese hamster (Chinese hamster ovary cells, hereinafter CHO cells) in which there was recombinant expression of human ECE [see Schmidt et al., Federation of European Biochemical Societies Letters 356 238-43 (1994)] were lysed, and the cell membranes were removed by centrifugation at 10,000×g for 10 min. The cell membranes were washed by resuspension and repeated centrifugation three times. The ECE-containing cell membrane fraction was resuspended in 100 mM tris/HCl buffer (tris(hydroxymethyl)aminomethane/HCl, pH 7.0, containing 250 mM NaCl) and stored frozen at -70° C. before the enzyme test.
To carry out the test, respective 100 μl samples of various incubation solutions each containing 5 μg protein from an ECE-containing preparation of endothelial cell membranes and different amounts of test substance and 24 μM substrate (synthetic peptide: H2 N-Asp-Ile-Ala-Trp-Phe-Asn-Thr-Pro-Glu-His-Val-Val-Pro-Tyr-Gly-Leu-Gly-COOH) (SEQ ID NO:1) and 100 mM tris buffer (tris(hydroxymethyl)aminomethane/HCl, pH 7.0, containing 250 mM sodium chloride) were prepared. […]
The incubation solutions were preincubated at 37° C. for 15 min before the substrate was added. […] The hydrolysis products H2N-Asp-Ile-Ala-Trp-COOH (SEQ ID NO:2) and H2 N-Phe-Asn-Thr-Pro-Glu-His-Val-Val-Pro-Tyr-Gly-Leu-Gly-COOH (SEQ ID NO:3) formed from the substrate by the enzymatic reaction were determined with the aid of high-pressure liquid chromatography (HPLC). […] The IC50 was calculated for each test substance in a known manner from the concentrations of hydrolysis products measured in the various samples.

O=C(O)CN1C(=O)[C@@H](NC(=O)C2(C[C@@H](CCc3ccccc3)C(=O)O)CCCC2)CCc2ccccc21 [Example 8, (3S,2'R)-3-[1-(2'-Carboxy-4'-phenylbutyl)cyclopentane-1-carbonylamino]-2,3,4,5-tetrahydro-2-oxo-1H-1-benzazepine-1-acetic acid]
Increase in the excretion of urine under volume loading after administration of test substance as % based on the increase after placebo administration ([1]; 0.1 mg/kg i.v.): 123.5%
Increase in the excretion of urine under volume loading after administration of test substance as % based on the increase after placebo administration ([1]; 1.0 mg/kg i.v.): 153.7%
K excretion under volume loading, amount excreted after administration of test substance as % of the amount excreted after placebo administration ([1]; 0.1 mg/kg i.v.): 80.8%
K excretion under volume loading, amount excreted after administration of test substance as % of the amount excreted after placebo administration ([1]; 1.0 mg/kg i.v.): 121.8%
Na excretion under volume loading, amount excreted after administration of test substance as % of the amount excreted after placebo administration ([1]; 0.1 mg/kg i.v.): 160.9%
Na excretion under volume loading, amount excreted after administration of test substance as % of the amount excreted after placebo administration ([1]; 1.0 mg/kg i.v.): 230.4%
IC50 [2]: 1.29 µM
